This is an account of results in PubChem BioAssay (NCI).

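Exposure lasted 48 hours, with cells grown in 96-well plates and compounds tested at five concentrations. TGI: total growth inhibition.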

Some test systems named below: EKVX NSCLC; K-562 leukemia; LOX IMVI melanoma; MOLT-4 leukemia; RPMI-8226 leukemia; SF-295 CNS; SK-MEL-28 melanoma; SK-MEL-5 melanoma; SN12C renal.
Experiment in all cases: growth of human tumour cells (NCI), 48 h

Regarding `CC(=O)NNc1nc(C)c(C(=O)/C=C/c2ccc(Cl)c(Cl)c2)s1`, the TGI with EKVX NSCLC, with K-562 leukemia, in the assay with LOX IMVI melanoma, with MOLT-4 leukemia, with RPMI-8226 leukemia and in the assay with SF-295 CNS was more than 100 µM throughout. The TGI in the assay on SK-MEL-28 melanoma, with SK-MEL-5 melanoma and in the assay on SN12C renal was more than 100 µM in each case.

For the compound `CCOC(=O)C1SC(=Nc2ccc(Cl)cc2Cl)N=C1C` (stereo unspecified), the TGI in the assay with EKVX NSCLC, in the assay on K-562 leukemia, in the assay on LOX IMVI melanoma, in the assay with SF-295 CNS, with SK-MEL-28 melanoma and in the assay with SK-MEL-5 melanoma was more than 100 µM throughout. This compound had a TGI in the assay on SN12C renal of more than 100 µM.

`O=C(O)CCN(CCCN(CCC(=O)O)CCC(=O)O)CCC(=O)O`: the TGI in the assay with EKVX NSCLC, in the assay on K-562 leukemia, in the assay on LOX IMVI melanoma, with MOLT-4 leukemia, with RPMI-8226 leukemia and in the assay with SF-295 CNS was more than 100 µM each time. For the same compound, the TGI in the assay with SK-MEL-28 melanoma, in the assay with SK-MEL-5 melanoma and in the assay on SN12C renal was more than 100 µM throughout.

Turning to `COc1ccc2c(c1)[n+]([O-])c(/C(C)=N/NC(=O)c1ccccc1O)c(C)[n+]2[O-]`, the TGI in the assay on EKVX NSCLC, with K-562 leukemia, in the assay with LOX IMVI melanoma, in the assay with MOLT-4 leukemia, in the assay on RPMI-8226 leukemia and with SF-295 CNS was more than 100 µM throughout. Further, the TGI in the assay on SK-MEL-28 melanoma, in the assay with SK-MEL-5 melanoma and in the assay on SN12C renal was more than 100 µM in each case.

Regarding `COc1cc(CNc2cnc3ccc(N)cc3n2)cc(OC)c1OC`, the TGI in the assay with EKVX NSCLC, with K-562 leukemia, with LOX IMVI melanoma, in the assay with MOLT-4 leukemia, with RPMI-8226 leukemia and in the assay with SF-295 CNS was more than 100 µM throughout. Further, the TGI in the assay with SK-MEL-28 melanoma, in the assay with SK-MEL-5 melanoma and in the assay with SN12C renal was more than 100 µM throughout.

For the compound `NC(CCCCNCc1ccccc1)C(=O)O` (stereo unspecified), the TGI in the assay with EKVX NSCLC, in the assay on K-562 leukemia, in the assay with LOX IMVI melanoma, in the assay on MOLT-4 leukemia, in the assay with RPMI-8226 leukemia and in the assay on SF-295 CNS was more than 100 µM in each case. The TGI in the assay on SK-MEL-28 melanoma, with SK-MEL-5 melanoma and with SN12C renal was more than 100 µM throughout.

On to `CC(C)OP(=O)(OC(C)C)C(=NCCN=C(NNc1ccccc1[N+](=O)[O-])P(=O)(OC(C)C)OC(C)C)NNc1ccccc1[N+](=O)[O-]`, for which the TGI in the assay with EKVX NSCLC, in the assay with K-562 leukemia, with LOX IMVI melanoma, with MOLT-4 leukemia, in the assay on RPMI-8226 leukemia and in the assay on SK-MEL-28 melanoma was more than 100 µM throughout. In addition, in the assay with SN12C renal, the TGI is more than 100 µM.

`CN(C)C(=NC#N)N(Cc1ccccc1)Cc1ccccc1`: the TGI with EKVX NSCLC was more than 100 µM; with K-562 leukemia, 50.9 µM; in the assay with LOX IMVI melanoma it was more than 100 µM; in the assay on RPMI-8226 leukemia it was more than 100 µM; with SF-295 CNS, more than 100 µM; in the assay on SK-MEL-28 melanoma it was more than 100 µM. In addition, the TGI in the assay with SK-MEL-5 melanoma and with SN12C renal was more than 100 µM each time.

For the compound `NC(N)=NS(=O)(=O)c1ccc(NC(=O)c2cccc3c(N)c4ccccc4nc23)cc1`, the TGI in the assay with EKVX NSCLC, in the assay on K-562 leukemia, in the assay with LOX IMVI melanoma, with MOLT-4 leukemia, in the assay on RPMI-8226 leukemia and in the assay with SF-295 CNS was more than 100 µM throughout. Also, the TGI in the assay with SK-MEL-28 melanoma, with SK-MEL-5 melanoma and in the assay with SN12C renal was more than 100 µM in each case.

On to `CC(C)c1ccc(/C=C/c2cc(C(=O)NNC(=O)NC3CCCCC3)nc(=S)[nH]2)cc1`, for which the TGI in the assay with EKVX NSCLC, in the assay with LOX IMVI melanoma, in the assay on RPMI-8226 leukemia, in the assay on SF-295 CNS, with SK-MEL-28 melanoma and in the assay with SK-MEL-5 melanoma was more than 100 µM each time. In the assay on SN12C renal, this compound registered a TGI of more than 100 µM.

On to `CC1=C(C(=O)CC(=O)C(=O)Nc2ccc(C)c(C)c2)Sc2ccccc2N1`, for which the TGI in the assay with EKVX NSCLC, in the assay on LOX IMVI melanoma, in the assay with RPMI-8226 leukemia, in the assay with SF-295 CNS, in the assay on SK-MEL-28 melanoma and with SK-MEL-5 melanoma was more than 100 µM in each case. This compound also displayed a TGI in the assay with SN12C renal of more than 100 µM.

As for `Cc1ccc(Sc2ccccc2N)cc1`, the TGI was more than 100 µM in the assay on EKVX NSCLC; more than 100 µM in the assay on K-562 leukemia; more than 100 µM in the assay on LOX IMVI melanoma; 58.4 µM in the assay with MOLT-4 leukemia; 53.4 µM in the assay with RPMI-8226 leukemia; more than 100 µM with SF-295 CNS. Besides, the TGI with SK-MEL-28 melanoma was more than 100 µM; in the assay with SK-MEL-5 melanoma it was 45.5 µM; in the assay on SN12C renal it was more than 100 µM.

Regarding `O=C(Cc1nc2ccc([N+](=O)[O-])cc2[nH]c1=O)C(=O)Nc1ccccc1[N+](=O)[O-]`, the TGI in the assay on EKVX NSCLC, with K-562 leukemia, in the assay with LOX IMVI melanoma, in the assay on MOLT-4 leukemia, with SF-295 CNS and with SK-MEL-28 melanoma was more than 100 µM in each case. This compound also returned a TGI with SK-MEL-5 melanoma of more than 100 µM.
